T/C data for 22 compounds are collected here from PubChem BioAssay AID296 (DTP/NCI, 2004).

The structures appear in SMILES notation. Several values for one entry are separate records, joined by “and”; a condition that tells them apart may be missing. Equal entries are not always repeated. Inconclusive results are not listed.

The test system of the test is MX-1 breast xenograft, nude mice, tumor weight T/C. In words: NCI In Vivo Anticancer Drug Screen. Data for tumor model Human Mammary Carcinoma MX-1 Xenograft (intrarenal inoculation) in NU/NU Swiss (nude) mice. Particulars: endpoint: mean tumor weight change, higher = larger tumour. The gist of the method:
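Activity is given as a ratio, with each measurement in the compound-treated arm divided by the matching measurement in vehicle-dosed controls. Tumour size or survival serves as the measured parameter.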
Background: A xenograft is tissue or cells of one species grown in another, often human tumour cells in immunodeficient mice.

The mark [1] stands for this setting: dose: 100.0 mg/kg/injection, schedule: Q01DX010 (sc), vehicle: saline with Tween-80.
[2] abbreviates: dose: 200.0 mg/kg/injection, schedule: Q01DX010 (sc), vehicle: saline with Tween-80.
Where [3] appears, read: dose: 800.0 mg/kg/injection, schedule: Q01DX010 (sc), vehicle: saline with Tween-80.
Where [4] appears, read: dose: 150.0 mg/kg/injection, schedule: Q04DX003 (sc), vehicle: saline with Tween-80.
Setting [5] is: dose: 300.0 mg/kg/injection, schedule: Q04DX003 (sc), vehicle: saline with Tween-80.
Where [6] appears, read: dose: 1200.0 mg/kg/injection, schedule: Q04DX003 (sc), vehicle: saline with Tween-80.
Where [7] appears, read: dose: 600.0 mg/kg/injection, schedule: Q04DX003 (sc), vehicle: saline with Tween-80.
The mark [8] stands for this setting: dose: 2400.0 mg/kg/injection, schedule: Q04DX003 (sc), vehicle: saline with Tween-80.

For the compound `CC1CN1C(=O)NCCCCCCNC(=O)N1CC1C` (stereo unspecified), the T/C runs as follows: (dose: 5.0 mg/kg/injection, schedule: Q04DX003 (sc), vehicle: Klucel (hydroxypropylcellulose) (HPC)) 21 % of control; (dose: 40.0 mg/kg/injection, schedule: Q04DX003 (sc), vehicle: Klucel (hydroxypropylcellulose) (HPC)) -86 % of control and -63 % of control.
For the compound `c1ccc2c(c1)[As]=c1ccccc1=[As]2` (stereo unspecified), the T/C is 116 % of control (dose: 150.0 mg/kg/injection, schedule: Q04DX003 (sc), vehicle: saline); 118 % of control (dose: 300.0 mg/kg/injection, schedule: Q04DX003 (sc), vehicle: saline); 99 % of control (dose: 600.0 mg/kg/injection, schedule: Q04DX003 (sc), vehicle: saline).
`CCO/C=C1\SC(=S)N(c2ccccc2C)C1=O`: the T/C under setting [1] is 121 % of control, the T/C under setting [2] is 90 % of control and the T/C under setting [3] was 111 % of control.
As to `O=[N+]([O-])c1c(O)c(CNCCCO)cc(CNCCCO)c1O`, the T/C by setting is: (dose: 37.5 mg/kg/injection, schedule: Q04DX003 (ip), vehicle: suspension in saline) 50 % of control; (dose: 75.0 mg/kg/injection, schedule: Q04DX003 (ip), vehicle: suspension in saline) 55 % of control.
`ClCc1ccc2ccccc2n1`: the T/C under setting [4] was 98 % of control, the T/C under setting [5] was 98 % of control and the T/C under setting [6] is 116 % of control.
In the case of `CCCCCCCCCCCCCCCCCC(=O)OCC(=O)OCC(=O)[C@]1(O)Cc2c(O)c3c(c(O)c2[C@@H](OC2CC(N)C(O)C(C)O2)C1)C(=O)c1c(OC)cccc1C3=O` (stereo partly specified), the T/C (dose: 6.0 mg/kg/injection, schedule: Q01DX010 (sc), vehicle: water) was 48 % of control and the T/C (dose: 12.0 mg/kg/injection, schedule: Q01DX010 (sc), vehicle: water) was 21 % of control.
Take `CNc1nc(N(C)C)nc(N(C)C)n1`: the T/C (dose: 12.5 mg/kg/injection, schedule: Q04DX003 (sc), vehicle: water) is 59 % of control; the T/C (dose: 25.0 mg/kg/injection, schedule: Q04DX003 (sc), vehicle: water) is 60 % of control; the T/C (dose: 30.0 mg/kg/injection, schedule: Q01DX010 (sc), vehicle: water) was 24 % of control; the T/C (dose: 50.0 mg/kg/injection, schedule: Q04DX003 (sc), vehicle: water) was 34 % of control; the T/C (dose: 60.0 mg/kg/injection, schedule: Q01DX010 (sc), vehicle: water) is 3 % of control; the T/C (dose: 100.0 mg/kg/injection, schedule: Q04DX003 (sc), vehicle: water) was 10 % of control. Further, the T/C (dose: 120.0 mg/kg/injection, schedule: Q01DX010 (sc), vehicle: water) is -63 % of control.
In the case of `O=C(Nc1nncs1)c1ccncc1`, the T/C is 101 % of control under setting [4], 109 % of control under setting [7] and 65 % of control under setting [6].
In the case of `CCCCCCCCCCS(=O)CC(CO)NC(=O)/C=C/c1c(C)[nH]c(=O)[nH]c1=O` (stereo unspecified), the T/C reads like this: (dose: 9.38 mg/kg/injection, schedule: Q04DX003 (sc), vehicle: distilled water + Tween-80) 88 % of control; (dose: 18.75 mg/kg/injection, schedule: Q04DX003 (sc), vehicle: distilled water + Tween-80) 113 % of control; (dose: 37.5 mg/kg/injection, schedule: Q04DX003 (sc), vehicle: distilled water + Tween-80) 46 % of control.
With `CC(=O)OC1C(O)C(C)OC(OC2C(OC(=O)C3CCC4C(C3)OC3(CC(OC(=O)/C=C/c5ccccc5)C(C)CO3)C43CO3)OC(C)C(O)C2OC(C)=O)C1O` (stereo unspecified), the T/C is, setting by setting: (dose: 15.0 mg/kg/injection, schedule: Q04DX003 (sc), vehicle: distilled water + Tween-80) 124 % of control; (dose: 30.0 mg/kg/injection, schedule: Q04DX003 (sc), vehicle: distilled water + Tween-80) 117 % of control; (dose: 60.0 mg/kg/injection, schedule: Q04DX003 (sc), vehicle: distilled water + Tween-80) 73 % of control; (dose: 120.0 mg/kg/injection, schedule: Q04DX003 (sc), vehicle: distilled water + Tween-80) 61 % of control.
Take `CC(=O)OC1COC(NC(=O)N(CCCl)N=O)C(OC(C)=O)C1OC(C)=O` (stereo unspecified): the T/C (dose: 4.5 mg/kg/injection, schedule: Q04DX003 (sc), vehicle: saline with Tween-80) was 105 % of control; the T/C (dose: 9.0 mg/kg/injection, schedule: Q04DX003 (sc), vehicle: saline with Tween-80) was 77 % of control; the T/C (dose: 18.0 mg/kg/injection, schedule: Q04DX003 (sc), vehicle: saline with Tween-80) was 110 % of control; the T/C (dose: 36.0 mg/kg/injection, schedule: Q04DX003 (sc), vehicle: saline with Tween-80) was 82 % of control.
On to `Cc1c(CNc2ccc(C(=O)NC(CC(=O)O)C(=O)O)cc2)ccc2nc(N)nc(N)c12` (stereo unspecified), for which the T/C (dose: 6.0 mg/kg/injection, schedule: Q04DX003 (sc), vehicle: saline with Tween-80) was 29 % of control; the T/C (dose: 48.0 mg/kg/injection, schedule: Q04DX003 (sc), vehicle: saline with Tween-80) is 13 % of control and 33 % of control; the T/C (dose: 72.0 mg/kg/injection, schedule: Q04DX003 (sc), vehicle: saline with Tween-80) was 18 % of control and 28 % of control.
Take `O=C1CN(Cc2ccc3c(c2)OCO3)NO1`: the T/C under setting [4] was 64 % of control, the T/C under setting [5] is 42 % of control and the T/C under setting [7] was 39 % of control.
`c1cc[c]([Sn][c]2ccccc2)cc1`: the T/C was 112 % of control (dose: 20.0 mg/kg/injection, schedule: Q01DX010 (sc), vehicle: saline); 84 % of control (dose: 40.0 mg/kg/injection, schedule: Q01DX010 (sc), vehicle: saline); 74 % of control (dose: 80.0 mg/kg/injection, schedule: Q01DX010 (sc), vehicle: saline); 115 % of control (dose: 160.0 mg/kg/injection, schedule: Q01DX010 (sc), vehicle: saline).
Regarding `O=C(CO)c1ccc([N+](=O)[O-])cc1`, the T/C runs as follows: under setting [1], 95 % of control; under setting [2], 114 % of control; (dose: 400.0 mg/kg/injection, schedule: Q01DX010 (sc), vehicle: saline with Tween-80) 67 % of control; under setting [3], 63 % of control.
`CCCCCCCCCCCCSC1=C(Cl)C(=O)C(OC)=C(OC)C1=O`: the T/C is, setting by setting: under setting [5], 47 % of control; under setting [7], 77 % of control.
`COC1C(/C=C/C(C)=O)OC2OC(C)(C)OC21` (stereo unspecified): the T/C by setting is: (dose: 75.0 mg/kg/injection, schedule: Q04DX003 (sc), vehicle: suspension in saline) 97 % of control; (dose: 150.0 mg/kg/injection, schedule: Q04DX003 (sc), vehicle: suspension in saline) 160 % of control; (dose: 600.0 mg/kg/injection, schedule: Q04DX003 (sc), vehicle: suspension in saline) 82 % of control; (dose: 1200.0 mg/kg/injection, schedule: Q04DX003 (sc), vehicle: suspension in saline) 63 % of control.
For `O=C(O)c1cc(Cc2ccc(O)c(C(=O)O)c2)ccc1O` (tested in a mixture with another compound), the T/C runs as follows: (dose: 75.0 mg/kg/injection, schedule: Q04DX003 (sc), vehicle: Klucel (hydroxypropylcellulose) (HPC)) 63 % of control; (dose: 150.0 mg/kg/injection, schedule: Q04DX003 (sc), vehicle: Klucel (hydroxypropylcellulose) (HPC)) 55 % of control; (dose: 300.0 mg/kg/injection, schedule: Q04DX003 (sc), vehicle: Klucel (hydroxypropylcellulose) (HPC)) 93 % of control; (dose: 600.0 mg/kg/injection, schedule: Q04DX003 (sc), vehicle: Klucel (hydroxypropylcellulose) (HPC)) 76 % of control.
Take `Cc1cc(O)c(N=Nc2ccc(C(=O)O)cc2)cc1C`: the T/C was 123 % of control under setting [5], 124 % of control under setting [7] and 92 % of control under setting [8].
Consider `CC1Oc2cc3c(-c4c(O)cc(O)c5c(O)c6c(cc45)OC(C)C(C)C6=O)c(O)cc(O)c3c(O)c2C(=O)C1C` (stereo unspecified), for which the T/C (dose: 9.38 mg/kg/injection, schedule: Q04DX003 (ip), vehicle: suspension in saline) is 16 % of control.
On to `CC(C#N)(C#N)N=Nc1ccc(Cl)cc1Cl`, for which the T/C under setting [5] was 94 % of control, the T/C under setting [7] is 94 % of control, the T/C under setting [6] was 98 % of control and the T/C under setting [8] is 92 % of control.
Take `COC1OC(CO)C(O)C(NC(=O)N(C)N=O)C1O` (stereo unspecified): the T/C runs as follows: (dose: 225.0 mg/kg/injection, schedule: Q04DX003 (sc), vehicle: saline) 45 % of control; (dose: 900.0 mg/kg/injection, schedule: Q04DX003 (sc), vehicle: saline) 18 % of control and 20 % of control (2×); (dose: 1800.0 mg/kg/injection, schedule: Q04DX003 (sc), vehicle: saline) 3 % of control and 4 % of control.
